Assay [1] deals with Rat MTLn3 mammary adenocarcinoma cells. Put plainly: Low serum growth assay. Format: cell-based. To be noted: αMEM 0.3% FBS, increasing levels of protein, four days. The method, then:
FIG. 2. Effect of chorin e6 on the growth of Rat MTLn3 mammary adenocarcinoma cells. Cells were plated at 2,000 cells/well in 96 well plates in ∝MEM containing 5% FBS. One day after plating, media was changed to ∝MEM containing 0.3% FBS. Increasing levels of human holo-Tf (Native Tf) or human Ce6-Tf (both in PBS) were added to respective wells, in the amount indicated. Four days later, cells were quantitated using a crystal violet stain assay, where A590 correlates with cell number. A: an image of the crystal violet stained plate used in the assay is shown. B: A plot of the absorbances from A. Cell number and is seen to rise as the cells are exposed to increasing levels of native human Tf.
Growth assays: Rat MTLn3 mammary adenocarcinoma cells were plated at 2,000 cells/well in 96 well plates in ∝MEM containing 5% FBS. One day after plating, media was changed to ∝MEM containing 0.3% FBS. Increasing levels of human holo-Tf or human Ce6-Tf (both in PBS) were added to respective wells. Four days later, cells were quantitated using a crystal violet stain assay.

Another assay deals with T1, transferrin receptor (Rattus norvegicus, UniProt Q99376).
T1 construct: endogenous in cells; host or cells: Rat MTLn3 mammary adenocarcinoma cells (intact monolayers at 4 °C)
Nature of the assay: Competition of FITC-Tf binding to cell surfaces (Western blot detection). To be noted: competitor 1 mg/ml, FITC-Tf 100 μg/ml, 4° C., 2 h. The procedure: FIG. 4. Competition of FITC-Tf binding to cell surfaces by Ce6-Tf. Transferrin solvent, human Ce6-Tf, or native human Tf were added to Rat MTLn3 mammary adenocarcinoma cell monolayers equilibrated to 4° C. The final concentration of both transferrins was 1 mg/ml. FITC- human Tf was then added to all wells at 100 μg/ml. After a 2 h incubation, cells were washed, lysed, electrophoresed, blotted, and examined for FITC content by incubation with anti-FITC and an HRP-conjugated second antibody, followed by ECL. A strong band at 70,000 Kd was seen from cell lysates which received FITC-Tf only (lanes 4 and 5), indicating FITC-Tf binding to the cells. […] Lanes 1-3 were loaded with known amounts of pure FITC-Tf, for standardization. An image of the ECL X-ray film is shown.
Competition binding: This measures the ability of a material to inhibit the binding of FITC-transferrin to cell surfaces. FITC-Tf bound to the cells is detected by Western blotting of cell lysates and specific antibody-based detection of FITC in those. Rat MTLn3 mammary adenocarcinoma cells were grown to confluence in 12 well plates using media consisting of ocMM containing 5% v/v fetal bovine serun (FBS). […] Lysate protein was determined using the BCA assay (Pierce Chemical). […] The blot was blocked and FITC-TF was detected by treatment with rabbit anti-FITC then with anti-rabbit IG-HRP followed by ECL using an HRP substrate.

In assay [2] the test system is MTLn3 cells. Put plainly: Cell killing assay, protocol B (serum-containing, one-day exposure). The class given is cell-based, rat. The method, then: (§1) FIG. 6. […] This was a one-day exposure, serum-containing assay performed using protocol B described in the cell killing section. Cells were plated in 24 well plates and grown to confluency. On day one, media was changed and increasing levels of Ce6-Tf were added to test wells to a final concentration from 7.5 to 30 ug/ml. Native Tf was added to control wells at 30 ug/ml. On day 2, media was changed to that without added Ce6-Tf or Tf. On days 2, 3, and 4, cells were exposed to light from an X-ray film box for 15 min. Media was changed each day. On day five, all cells were fixed, stained, and quantitated using the crystal violet stain assay. Stained cell numbers were evaluated using a Bio-Rad Multi-imager. Images of the stained plates are shown in A and B. The results of image analysis are shown in C and D, where ODU/mm2 correlates with cell number.
(§2) FIG. 8. A: Effect of Ce6 alone on the viability of Rat MTLn3 cells. Cells were tested as per method B outlined in the cell killing procedure description. Confluent cells in ∝MEM containing 5% FBS were exposed to the indicated concentrations of Ce6, Ce6-Tf, or Tf alone. One day later, media was changed to that without added Ce6-Tf or Tf, and all cells were exposed to light for 15 min. This was repeated on days two and three. Cells were then fixed and stained with Coomassie blue. An image of the stained wells is shown. […] B: Effect of excess Tf on the killing effect of Ce6-Tf Cells were set up similarly as above, except that treatments consisted of Ce6-Tf, or Ce6-Tf in conjunction with 500 or 1,000 μg/ml native Tf. Light exposure, media changes, and cell staining were carried out as in A. An image of the stained wells is shown.
(§3) B: Serum-containing, one day exposure assays. For these, serum was maintained, to emulate in vivo conditions where excess endogenous normal transferrin would be present. In addition, the Ce6-Tf exposure was limited to I day to emulate a one time Ce6-Tf injection. Target cells were grown to confluence in 24 well plates. On the day of the assay, media in all wells was replaced with 1 ml of fresh serum-containing media and increasing levels of Ce6-Tf added to test wells. Native human holo-Tf was added, at the highest Ce6-Tf dose, to control wells. One day after Tf addition, media in all plates was changed to normal culture media (without Ce6Tf).
With both assay methods, two plates for each line to be tested were plated and treated identically. One day after Ce6-Tf addition, test plates were exposed to the light from an X-ray film box for 15 min.: the box was placed horizontally and the culture plates placed directly on the cover glass. The parallel plate from a given line was kept in the dark. The light treatment was repeated for 3 days. Media was changed (with [A] or without [B] added Ce6-Tf ) each day, to maintain cell viability. On the fourth day, the cells were quantitated using a crystal violet stain assay: wells were drained and washed 4 times with 2 ml PBS; cells were fixed with 1 ml 5% v/v glutaraldehyde (in PBS) at 25° C. for 20 min.; wells were washed 4 times with 2 ml distilled water and stained with 1 ml of a 1:1 (v:v) mixture of 0.2% (w/v) crystal violet and 100 mM CAPS (pH 9.0). Wells were drained and washed 4 times with 2 ml distilled water. After drying, cell density was determined using a Bio-Rad Multiimager, where ODU/mm2 correlates with cell number.
Effect of Ce6 alone: To determine if Ce6 alone, if added in appropriate concentrations, would induce cell death. […]

Assay [3] concerns Rat MTLn3 mammary adenocarcinoma cells. Nature of the assay: Cell killing assay, protocol A (serum-free, continuous exposure). The note with it: 1.25 to 5.0 μg/ml. Format: cell-based. The method, then: FIG. 5. […] This was a continuous exposure, serum-free assay performed using protocol A described in the cell killing section. Cells were plated in 24 well plates and grown to confluency in ∝MEM containing 5% v/v FBS. On day one, media was changed to ∝MEM only and increasing levels of Ce6-Tf were added to test wells to a final concentration from 1.25 to 5.0 μg/ml. Native Tf was added to control wells at 5.0 μg/ml. On days 2, 3, and 4, cells were exposed to light from an X-ray film box for 15 min. Media and all Tf was changed each day. On day five, all cells were quantitated using the crystal violet stain assay. Images of the stained plates are shown in A. Stained cell numbers were evaluated using a Bio-Rad Multi-imager. The results of image analysis are shown in B, where ODU/mm2 correlates with cell number. […]
(§4) With both assay methods, two plates for each line to be tested were plated and treated identically. […] On the fourth day, the cells were quantitated using a crystal violet stain assay: wells were drained and washed 4 times with 2 ml PBS; cells were fixed with 1 ml 5% v/v glutaraldehyde (in PBS) at 25° C. for 20 min.; wells were washed 4 times with 2 ml distilled water and stained with 1 ml of a 1:1 (v:v) mixture of 0.2% (w/v) crystal violet and 100 mM CAPS (pH 9.0). […] After drying, cell density was determined using a Bio-Rad Multiimager, where ODU/mm2 correlates with cell number.

For assay [4], the system named is MTLn3 cells. Put plainly: Transferrin competition of cell killing. The class given is cell-based, rat. The note with it: MTLn3, 30 ug/ml Ce6Tf plus 500 or 1,000 μg/ml native Tf, light. The method, then: as §2
Transferrin competition of cell killing: These were performed to ensure that Ce6-Tf's cell killing effect was due to the function of the transferrin ligand: that the light-induced killing effect could be neutralized with excess native Tf Method B. from above was used. Confluent cultures of MTLn3 cells in 24 well plates were treated with 30 ug/ml of Ce6Tf. […] Light-induced killing assays were continued and cells quantitated as stated above in method B.

Assay [5] deals with Human MCF7 breast cancer cells. Nature of the assay: Cell killing assay, protocol B (serum-containing, one-day exposure). To be noted: MCF7, 7.5 to 30 ug/ml. Format: cell-based. The procedure: FIG. 7. […] Cells were plated in 24 well plates and grown to confluency. On day one, media was changed and increasing levels of Ce6-Tf were added to test wells to a final concentration from 7.5 to 30 ug/ml. Native Tf was added to control wells at 30 ug/ml. On day 2, media in all wells was changed to that without added Ce6-Tf or Tf On days 2, 3, and 4, cells were exposed to light from an X-ray film box for 15 min. Media was changed each day. On day five, all cells were fixed, stained, and quantitated using the crystal violet stain assay. Stained cell numbers were evaluated using a Bio-Rad Multi-imager. Images of the stained plates are shown in A. The results of image analysis are shown in B, where ODU/mm2 correlates with cell number. […]
as §4

The next assay concerns NRK cells. The assay is described as above. Format: cell-based, rat. The method, then: as §1, §3, §4

T1 sequence (Q99376 whole entry): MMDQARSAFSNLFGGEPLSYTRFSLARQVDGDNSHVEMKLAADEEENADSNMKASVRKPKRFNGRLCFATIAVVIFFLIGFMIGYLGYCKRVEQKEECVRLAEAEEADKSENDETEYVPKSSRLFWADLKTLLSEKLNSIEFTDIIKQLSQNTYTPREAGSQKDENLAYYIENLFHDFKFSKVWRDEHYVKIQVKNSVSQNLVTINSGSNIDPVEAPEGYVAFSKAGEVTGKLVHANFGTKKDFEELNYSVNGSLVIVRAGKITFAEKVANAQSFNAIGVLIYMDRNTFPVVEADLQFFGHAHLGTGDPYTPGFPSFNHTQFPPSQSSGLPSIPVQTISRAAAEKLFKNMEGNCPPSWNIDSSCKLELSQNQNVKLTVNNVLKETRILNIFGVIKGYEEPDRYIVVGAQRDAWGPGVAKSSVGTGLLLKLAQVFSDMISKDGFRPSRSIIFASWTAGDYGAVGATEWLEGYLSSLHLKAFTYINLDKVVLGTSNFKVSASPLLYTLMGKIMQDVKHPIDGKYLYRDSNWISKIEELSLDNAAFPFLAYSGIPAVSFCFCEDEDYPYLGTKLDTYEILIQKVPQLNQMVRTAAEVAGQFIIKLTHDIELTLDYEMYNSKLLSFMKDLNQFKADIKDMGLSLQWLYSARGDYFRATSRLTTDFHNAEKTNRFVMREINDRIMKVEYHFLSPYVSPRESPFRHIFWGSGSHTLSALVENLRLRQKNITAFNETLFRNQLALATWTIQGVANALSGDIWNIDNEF

For “Native Tf: Un-conjugated iron-saturated human transferrin (Sigma Chemical), used as control”, the “Effect on cell growth (cell number, crystal violet A590)” value in assay [1] is “seen to rise”. Further, the “Competition of FITC-Tf binding to cell surfaces” value with transferrin receptor was “competed out the FITC-Tf”.

For chlorin e6 [Ce6, reference compound], the “Cell killing effect of Ce6 alone with light” value in the assay with MTLn3 cells [2] (MTLn3, method B, free Ce6 4.3 uM (2.5 μg/ml), light 15 min on three days) is on record as “no cell killing effect”.

With chlorin e6-transferrin [Ce6-Tf], the “Effect on cell growth (cell number, crystal violet A590)” value in assay [1] is “similar, albeit slightly lower rise”. The “Cell killing with light exposure (cell number, ODU/mm2)” value in assay [3] (light 15 min on days 2, 3, 4) is recorded as “light-dependent killing”; with MTLn3 cells [2] (MTLn3, 7.5 to 30 ug/ml, one-day exposure, light 15 min on days 2, 3, 4), “light-dependent killing”; in assay [5] (one-day exposure, light 15 min on days 2, 3, 4) it was “light-dependent killing”; with NRK cells (7.5 to 30 ug/ml, one-day exposure, light 15 min on days 2, 3, 4), “light-dependent killing”. The “Cell numbers, plates kept in the dark” value in assay [3] (no light) and in assay [5] (no light) was “no loss of cell numbers” in each case. For the same substance, the “Change in cell numbers at the 15 ug/ml dose with light” value in the assay on MTLn3 cells [2] (MTLn3, 15 ug/ml, light) is given as “showed a decrease in cell numbers”; in the assay on NRK cells (15 ug/ml, light) it was “did not”. The “Cell numbers, plates maintained in the dark” value in the assay with MTLn3 cells [2] (MTLn3, 7.5 to 30 ug/ml, no light) was “no loss of cell numbers”; in the assay on NRK cells (7.5 to 30 ug/ml, no light), “no loss of cell numbers”. In the assay with MTLn3 cells [2] (initially present at 0.43 uM (30 ug/ml)), the Light-induced cell death result is given as “very active”. Further, the “Competition of FITC-Tf binding to cell surfaces” value with transferrin receptor is given as “competed out the FITC-Tf”. For the same substance, the “Killing effect of Ce6-Tf in presence of excess native Tf” value with MTLn3 cells [4] was “diminished the killing effect”.
